# Assay results published in US6723712B2, “Antiviral agent for use in treatment of cancer” (Institut Gustave Roussy, priority 1999, dated 2004).
# Entries after “also recorded” stand apart in the source; their conditions may differ.
# How the values were obtained:
# [1] = tested on: cervical carcinoma xenografts; details: cited from earlier work
# [2] = tested on: non-virally induced tumors; test: Tumor growth of non-virally induced human xenografts in nude mice; type: in vivo; details: cidofovir intra-tumor 60 mg/kg daily 5 days + irradiation 7 Gy on day 3 and 5
# Procedure: (§1) In vivo data are reported as the percentage of original (day 0) tumor volume and plotted as fractional tumor volume±S.E. Statistical significance was determined by Kruskal/Wallis and Mann-Withney U tests.
# (§2) Female Swiss nu/nu mice were housed throughout experiments in sterile isolators and fed ad libitum with irradiated food (UAR, Villemoisson/Orge, France) and filtered water. Experiments were performed according to the regulation n°86/609/CEE of the European Community. Cell lines were established in vivo in Swiss athymic mice by subcutaneous injection in the right flank of 5×10^6 cells per animal and subsequently maintained in vivo by sequential passages in animals aged 6 to 8 weeks. Nude mice bearing 500-1000 mm3 tumors were used for in vivo experiments. Two types of control were used including both injection of PBS (intra-tumor and intravenous (IV)), irradiation alone, or chemotherapy alone.
# Irradiation of cells was performed using a ^137Cs γ-rays source at a dose rate of 1.45 Gy.min^−1. […] Quantification of radiosensitivity was obtained by the surviving fraction at 2 Gy (SF2). Cell survival was also assessed by using proliferation tests (incorporation of tritiated thymidine and MTT). […]
# The example presented herewith also relates to the combination of cidofovir with irradiation which was evaluated in vivo in various human viral-associated and also in non viral associated human cancers. […]
# [3] = tested on: C15, Raji, HEP2, HTB33 tumor xenografts; test: Tumor growth of virus-positive human xenografts in nude mice; type: in vivo
# Procedure: as §1, §2
# (§3) Irradiation of cells was performed using a ^137Cs γ-rays source at a dose rate of 1.45 Gy.min^−1. Briefly survival curves were obtained by irradiating cells (0 to 6 Gy). The linear-quadratic model was used for fitting survival curves. Quantification of radiosensitivity was obtained by the surviving fraction at 2 Gy (SF2). Cell survival was also assessed by using proliferation tests (incorporation of tritiated thymidine and MTT). Irradiation of animals was performed using a 200 kv apparatus.
# The example presented herewith also relates to the combination of cidofovir with irradiation which was evaluated in vivo in various human viral-associated and also in non viral associated human cancers. The effect of cidofovir alone or combined with irradiation was studied in vivo in nude mice bearing 500-1000 mm3 tumor xenografts. The treatment consisted of 60 mg/kg daily of cidofovir intra-tumor injection for 5 days. In the combined group, irradiation (7 Gy) was performed on day 3 and 5 of cidofovir.
# Bcl2 = test: Western blot of Bcl2 in EBV+ cells; type: cell-based, human; details: Cidofovir 10 μg/ml, 48 hrs
# Procedure: (§4) b, RAJI cells were cultured in the presence or absence of Ciodofovir (10 μg/ml). At 48 hrs, cells were harvested and analyzed for the expression of LMP1, bcl-2 and bax by Western-blot. For C15, at day 7 portions of tumors where lysed in RIPA buffer and protein extracts were immunoblotted with anti-LMP-1 antibody. The blot from b was stripped and re-probed with a monoclonal β-actin antibody.
# (§5) To prepare total proteins, cells lysates were extracted with lysis buffer 50 mM tris, pH 8, 120 mM NaCl, 0,1% SDS, and 0,5% NP-40. The protein concentration in the soluble fraction was determined by using a BioRad protein assay reagent. The viral oncoprotein LMP1 was detected by immunoblotting with a monoclonal anti-LMP1 antibody (clone CS1,CS2,CS3 & CS4 cocktail, RDI). The following antibodies were used: anti-Bcl2 (clone 100 Santa Cruz Biotechnology), anti-Bax (clone B-9, Santa Cruz, anti-E6 (clone CIP5, abcam), anti-E7 (clone Ab-1, oncogene), anti-p53 (clone DO7, Dako). Anti β-actin (clone AC-40, Sigma) was used to control protein loading. Autoradiograms of the Western blot were scanned with the Gil doc 1000 image scanner (Bio-rad, Hercules, Calif.) and densitometric analysis of the bands was performed using the molecular analyst software program (Bio-rad, Hercules, Calif.).
# [4] = tested on: Ramos, HTB31, and SCC97 cells; test: Clonogenic survival and proliferation test with irradiation, non virus-containing cells; type: cell-based, human; details: cidofovir 1 to 10 μg/ml combined with irradiation, non virus-related cells
# Procedure: as §3
# (§6) It was studied in EBV+ human carcinoma C15 cells, EBV+ lymphoma Raji cells, 2 HPV+ carcinoma HTB33 and HEP2 cells. The effect of the combination was also studied in 3 human cell lines lacking the viral infection namely Ramos (lymphoma) HTB31 and SCC97 (carcinoma) cells.
# (§7) For each cell line, several concentrations of cidofovir were used in vitro in combination with irradiation (between 1 and 10 μg/ml). The effect of the combined treatment was evaluated using both a proliferation test and a clonogenic assay for cell survival.
# RAJI cells = test: Apoptosis assay (FACS, sub-G1 peak) in RAJI cells; type: cell-based, human; details: Cidofovir 10 μg/ml combined with irradiation (3 and 6 Gy)
# Procedure: (§8) a, RAJI cells were cultured in the presence of Cidofovir (5 and 10 μg/ml) and irrediated […] with 3 Gy and then assayed for apoptosis by FACS analysis. C15 tumors were injected intra-tumorally for 5 days with Cidofovir ([…]) and received 7 Gy on day 3 and 5. Animals were sacrified on day 7 and tumors were dissected and prepared for FACS analysis of propidium-iodide nuclei staining as described above.
# (§9) The cell cycle distribution was estimated by staining ethanol-fixed cells with propidium iodide and monitoring by FACScan flow cytometer (Becton Dickinson) using cellQuest software. Briefly, 1×10^6 cells were cultured without or with 5 and 10 μg/ml of Cidofovir, 24 hours later cells were irradiated with 3 and 6 Gy and collected 12 and 24 hours after irradiation. The percentage of apoptotic cells was determined by sub-G1 peak.
# human cancer cells = test: Combination with chemotherapeutic drugs, tumor cell growth; type: cell-based; details: in vitro
# Procedure: Similar experiments combining a nucleoside analogue with cytotoxic agents other than irradiation were performed (chemotherapeutic drugs, cytokines). The example presented herewith relates to the combination of cidofovir with chemotherapeutic drugs which was evaluated in vitro and in vivo in various virus-associated and non virus-associated human cancers.
# LMP-1 [5] = test: Western blot of LMP-1 in RAJI cells; type: cell-based, EBV
# Procedure: b, RAJI cells were cultured in the presence or absence of Ciodofovir (10 μg/ml). […] For C15, at day 7 portions of tumors where lysed in RIPA buffer and protein extracts were immunoblotted with anti-LMP-1 antibody. The blot from b was stripped and re-probed with a monoclonal β-actin antibody.
# as §5
# EBV and HPV cancer cells = test: Radiation-induced DNA repair by Fluorescence In Situ Hybridization (FISH); type: cell-based, human; details: FISH (data not shown)
# From the text: Cidofovir is a potent inhibitor of the replication of EBV and HPV in cell culture. In addition, the incorporation into the cellular DNA of the infected cell may disrupt the genomic integrity and enhance susceptibility to apoptosis or necrosis.
# [6] = tested on: cell lines derived from human cervical carcinoma; details: cited from earlier work
# E7 = test: Immunoblot of E7 in HPV+ HTB33 and HEP2 cells; type: cell-based; details: HPV+ cells exposed to Cidofovir 10 μg/ml
# Procedure: (§10) a2b2 HEP2 (a) and HTB33 (b) cells were cultured in the presence or absence of Cidofovir (10 μg/ml) for 3 and 6 days, and cells were collected in exponential phase, lysed and total protein were immunoblotted with the Ab-1 anti-E7, C1P5 […], and DO7 anti-p53. The blots were stripped and re-probed with a monoclonal β-actin antibody.
# as §5
# LMP-1 [7] = test: Immunoblot of LMP-1 in C15 tumors; type: in vivo, EBV; details: intra-tumoral Cidofovir 50 mg/kg/day for 5 days, day 7
# Procedure: as §8, §4
# To prepare total proteins, cells lysates were extracted with lysis buffer 50 mM tris, pH 8, 120 mM NaCl, 0,1% SDS, and 0,5% NP-40. The protein concentration in the soluble fraction was determined by using a BioRad protein assay reagent. The viral oncoprotein LMP1 was detected by immunoblotting with a monoclonal anti-LMP1 antibody (clone CS1,CS2,CS3 & CS4 cocktail, RDI). […]
# p53 [8] = test: Immunoblot densitometry of p53 in HEP2 cells; type: cell-based, human; details: HEP2, Cidofovir 10 μg/ml, scored 1 without Cidofovir
# Procedure: as §10, §5
# Bax = test: Western blot of Bax in EBV+ cells; type: cell-based, human; details: Cidofovir 10 μg/ml, 48 hrs
# Procedure: as §4, §5
# C15 tumors = test: Apoptosis assay (FACS, propidium iodide) in C15; type: in vivo, human; details: C15, Cidofovir combined with irradiation
# Procedure: as §8, §9
# E6 [9] = test: Immunoblot densitometry of E6 in HEP2 cells; type: cell-based, HPV; details: HEP2, Cidofovir 10 μg/ml, scored 1 without Cidofovir
# Procedure: as §10, §5
# [10] = tested on: EBV+ and HPV+ cell lines (C15, Raji, HTB33, HEP2); test: Clonogenic survival and proliferation test with irradiation, EBV+ and HPV+ cell lines; type: cell-based, human; details: cidofovir 1 to 10 μg/ml combined with irradiation, virus-related cells
# Procedure: as §3, §6, §7
# HPV+ tumors = test: Histological sections of HPV+ tumors; type: in vivo, mice; details: Cidofovir combined with irradiation, 2 HPV+ models (data not shown)
# From the text: At 10 day after treatment, mice with HPV+ tumors from all groups were sacrified and tumors were excised and fixed in 10% neutral buffered formalin (NBF). The sections from each group were heamatoxylin and eosin (H&E)-stained for histological analysis.
# p53 [11] = test: Immunoblot densitometry of p53 in HTB33 cells; type: cell-based, human; details: HTB33, Cidofovir 10 μg/ml, scored 1 without Cidofovir
# Procedure: as §10, §5
# E6 [12] = test: Immunoblot densitometry of E6 in HTB33 cells; type: cell-based, HPV; details: HTB33, Cidofovir 10 μg/ml, scored 1 without Cidofovir
# Procedure: as §10, §5
smiles,measurement,setting,value
"Nc1ccn(C[C@@H](CO)OCP(=O)(O)O)c(=O)n1 [Cidofovir, (S)-1-[3-hydroxy-2-(phosphonomethoxy)propyl]cytosine]",tumor growth,"[1]; administered topically or systemically, nontoxic concentrations",no reduction of tumor growth
same,tumor size,"[1]; injected intratumorally, compared to placebo group",statistically significant reduction in tumor size
same,tumor growth,[2],dramatically reduced the growth delay
same,"anti-tumor effect, sub-cutaneous versus intra-tumor administration","[3]; C15, sub-cutaneous 50 mg/kg cidofovir in combination with irradiation",anti-tumor effect of the same magnitude
same,tumor growth delay,"[3]; cidofovir alone, 60 mg/kg daily intra-tumor for 5 days",weak growth delay
same,tumor growth,[3]; cidofovir intra-tumor 60 mg/kg daily 5 days + irradiation 7 Gy on day 3 and 5,dramatically reduced the growth delay; also recorded: major effect on tumor growth
same,complete remission of tumors,"[3]; combined treatment, 30 to 40 days after the treatment",nearly all the tumors were found to be in complete remission
same,Bcl2 expression,Bcl2,downregulation
same,radiosensitization (cell survival),[4],increased cell kill
same,radiosensitization (cell survival),[4]; listed as cidofovir,markedly radiosensitized
same,apoptosis,RAJI cells,marked increase
same,effect on tumor cell growth in combination with VP16,human cancer cells; VP16 5 μg/ml,synergic inhibitory effect
same,effect on tumor cell growth in combination with cis platinum,human cancer cells; cis platinum 2.5 μg/ml,synergic inhibitory effect
same,LMP-1 expression,LMP-1 [5]; 24 hours after exposure (data not shown),significant inhibition
same,LMP-1 expression,"LMP-1 [5]; RAJI cells, Cidofovir 10 μg/ml, 48 hrs",marked decrease
same,radiation-induced DNA repair at the chromosomal level,EBV and HPV cancer cells,no significant change
same,cell proliferation,[6],inhibited in a concentration-dependent and in a time-dependent fashion
same,expression of the viral oncoprotein E7,E7,decreased expression
same,LMP-1 expression,LMP-1 [7],marked decrease
same,P53 density score,p53 [8]; 3 days,1.2
same,P53 density score,p53 [8]; 6 days,1.65
same,Bax expression,Bax,up-regulation
same,apoptosis,C15 tumors,marked increase
same,E6 band density score,E6 [9]; 3 days,0.7
same,E6 band density score,E6 [9]; 6 days,0.25
same,"radiosensitization (decrease of SF2, surviving fraction at 2 Gy)",[10],increased cell kill
same,"radiosensitization (decrease of SF2, surviving fraction at 2 Gy)",[10]; listed as cidofovir,pronounced radiosensitization
same,tumor necrosis (histological sections),HPV+ tumors,increased tumor necrosis
same,P53 density score,p53 [11]; 3 days,2.1
same,P53 density score,p53 [11]; 6 days,3.7
same,E6 band density score,E6 [12]; 3 days,0.67
same,E6 band density score,E6 [12]; 6 days,0.32
